Measurements reported in patent US6251903A, “Alkyl, azido, alkoxy, and fluoro-substituted and fused quinoxalinediones and the use thereof as glycine receptor antagonist” (priority 2000, dated 2001).
Like-named read-outs stand apart in the source and are kept apart here. Each block holds one compound with its values, some of them ahead of it.

Legend:
[1] = target: NMDA receptor glycine sites; experiment: electrophysiological assay, cloned rat NMDA receptors expressed in Xenopus oocytes; format: cell-based; details: Table II; from electrophysiology using Xenopus oocytes
Description: (§1) The binding affinities of quinoxaline-2,3-diones at NMDA receptor glycine sites also were estimated by electrophysiological assays with either cloned rat NMDA receptors expressed in Xenopus oocytes, or non-NMDA receptors expressed in oocytes by whole rat brain poly(A)^+ RNA. […] For NMDA receptors Ki values were approximated by averaging values at three subtype combinations (NR1A/NR2A, NR1A/NR2B, and NR1A/NR2C).

glycine binding site = glycine binding site (Rattus norvegicus, UniProt P35439); experiment: affinity for the glycine binding site / glycine/NMDA receptor (Ki; method not stated)
Description: as §1

mice = experiment: anticonvulsant activity in maximum electroshock seizure (MES) experiments in mice; format: in vivo, male Swiss/Webster mice; details: for ED50 as an anticonvulsant in the MES experiment in mice: route not stated; for ED100 / ED50: Mus musculus; for ED50: read-out: ED50 (MES)
Description: The seizure stimulus parameters were: 50 mA, 60 Hz, rectangular pulse, width 0.8 msec, duration 200 msec. Tonic hind limb extension observed after application of the electrical stimulus was recorded as occurrence of seizure. The drug was applied i.v. as an aqueous Tris (Tromethamine) solution.

[2] = tested on: glycine binding site of the NMDA receptor; details: literature, cited from earlier work

Compound: Cc1c(F)cc2[nH]c(=O)c(=O)[nH]c2c1[N+](=O)[O-] [NO2 Me F H, 7-Fluoro-6-methyl-5-nitro-1,4-dihydro-2,3-quinoxalinedione]
Ki [1]: 53 nM
Ki (glycine binding site): 53 nM
ED50 (MES) (mice; Table III, i.v. injection): 2 mg/kg
ED50 as an anticonvulsant in the MES experiment in mice (mice): 2 mg/kg

Compound: Cc1cc(C)c2[nH]c(=O)c(=O)[nH]c2c1 [Me H Me H, 5,7-Dimethyl-1,4-dihydro-2,3-quinoxalinedione]
Ki [1]: 1700 nM

Compound: N#Cc1c(Cl)c(Cl)cc2[nH]c(=O)c(=O)[nH]c12 [CN Cl Cl H, 5-Cyano-6,7-dichloro-1,4-dihydroquinoxaline-2,3-dione]
Ki [1]: 15 nM

Compound: Cc1cc2[nH]c(=O)c(=O)[nH]c2c([N+](=O)[O-])c1Cl [NO2 Cl Me H, 6-Chloro-7-methyl-5-nitro-1,4-dihydroquinoxaline-2,3-dione]
Ki [1]: 27 nM
Ki (glycine binding site): 27 nM
ED50 as an anticonvulsant in the MES experiment in mice (mice): 2 mg/kg

Compound: O=c1[nH]c2cc(Cl)cc(C(F)(F)F)c2[nH]c1=O [CF3 H Cl H]
Ki (glycine binding site; Table IV, read-out: Ki): 395 nM
ED100 (mice; Table IV, i.v.): 30 mg/kg
ED50 (mice; Table IV, i.v.): 10 mg/kg
IV peak of action (mice; Table IV, i.v.): 30 min
% protection after 60 min. (mice; i.v., 30 mg/kg): 87%

Compound: O=c1[nH]c2ccc(F)cc2[nH]c1=O [F, reference compound]
Ki (glycine binding site; Table I, read-out: Ki): 2880 nM

Compound: N#Cc1ccc2nc(O)c(O)nc2c1 [CN, reference compound]
Ki (glycine binding site; Table I, read-out: Ki): 4890 nM

Compound: COc1c(F)cc2[nH]c(=O)c(=O)[nH]c2c1[N+](=O)[O-] [NO2 OMe F H, 7-Fluoro-6-methoxy-5-nitro-1,4-dihydroquinoxaline-2,3-dione]
Ki [1]: 320 nM
Ki (glycine binding site): 320 nM
ED50 (MES) (mice; Table III, i.v. injection): 7.5 mg/kg

Compound: O=c1[nH]c2cc(C(F)(F)F)cc(Cl)c2[nH]c1=O [Cl H CF3 H]
Ki (glycine binding site; Table IV, read-out: Ki): 320 nM
ED100 (mice; Table IV, i.v.): 20 to 25 mg/kg
ED50 (mice; Table IV, i.v.): 10 mg/kg
IV peak of action (mice; Table IV, i.v.): 15 min
% protection after 60 min. (mice; i.v., 20 mg/kg): 62%

Compound: N#Cc1c(Cl)c([N+](=O)[O-])cc2[nH]c(=O)c(=O)[nH]c12 [CN Cl NO2 H, 6-Chloro-5-cyano-7-nitro-1,4-dihydroquinoxaline-2,3-dione]
Ki [1]: 50 nM

Compound: Cc1cc2[nH]c(=O)c(=O)n(CC(=O)O)c2cc1C [Example 4a]
glycine site antagonism or affinity (words) [2]: functional antagonism

Compound: [N-]=[N+]=Nc1c(Cl)cc2[nH]c(=O)c(=O)[nH]c2c1Cl [Cl N3 Cl H, 6-azido-5,7-dichloro-1,4-dihydroquinoxaline-2,3-dione]
Ki [1]: 536 nM

Compound: CCc1cc(Br)cc2[nH]c(=O)c(=O)[nH]c12 [Et H Br H, 7-Bromo-5-ethyl-1,4-dihydroquinoxaline-2,3-dione]
Ki [1]: 900 nM

Compound: Oc1nc2cc(F)c(Cl)c(F)c2nc1O [F Cl F H, 6-Chloro-5,7-difluoro-1,4-dihydroquinoxaline-2,3-dione]
Ki (glycine binding site): 1000 nM
ED50 (mice; iv, Table III, i.v. injection): 10 mg/kg

Compound: O=c1[nH]c2cc(F)c(F)c(F)c2[nH]c1=O [F F F H, 5,6,7-Trifluoro-1,4-dihydro-2,3-quinoxalinedione]
Ki (glycine binding site; Table III, read-out: Ki): 2970 nM
ED50 (mice; iv, Table III, i.v. injection): 4 to 5 mg/kg
ED100 (mice; Table IV, i.v.): 15 to 20 mg/kg
ED50 (MES) (mice; Table IV, i.v.): 4 to 5 mg/kg
IV peak of action (mice; Table IV, i.v.): 2 min
% protection after 60 min. (mice; i.v., 10 mg/kg): 0%
protection against MES after 60 min. (mice; i.v., after 60 min): no more protection was observed

Compound: O=c1[nH]c2cc(Cl)c(Cl)cc2[nH]c1=O [6,7-dichloro-1,4-dihydroquinoxaline-2,3-dione]
glycine site antagonism or affinity (words) [2]: competitive antagonist specific to the strychnine-insensitive [^3 H] glycine binding sites
glycine site antagonism or affinity (words) ([2]; listed as drawing 6): competitively displaced the strychnine-insensitive binding of [^3 H]glycine, without affecting the other binding sites on the NMDA receptor complex

Compound: O=c1[nH]c2cc(Cl)c(Cl)c([N+](=O)[O-])c2[nH]c1=O [6,7-dichloro-5-nitro-1,4-dihydroquinoxaline-2,3-dione, reference compound]
ED50 (MES) (mice; Table IV, i.v.): 4 to 5 mg/kg
ED100 (MES) (mice; Table IV, i.v.): 7 to 10 mg/kg
IV peak of action (mice; Table IV, i.v.): 5 min
% protection after 60 min. (mice; i.v., 10 mg/kg): 55%
ED50 as an anticonvulsant in the MES experiment in mice (mice): 4 to 5 mg/kg

Compound: O=c1[nH]c2ccc(C(F)(F)F)cc2[nH]c1=O [CF3, reference compound]
Ki (glycine binding site; Table I, read-out: Ki): 360 nM

Further lines, with some results ahead:

Ki [1]: 6300 nM
Compound: O=c1[nH]c2cc3c(cc2[nH]c1=O)CCC3 [H CH2 CH2 CH2 H, Cyclopento[g]-1,4-dihydroquinoxaline-2,3-dione]

Ki [1]: 1000 nM
Compound: CCOc1c(F)cc2[nH]c(=O)c(=O)[nH]c2c1[N+](=O)[O-] [NO2 OEt F H, 7-Fluoro-6-ethoxy-5-nitro-1,4dihydroquinoxaline-2,3-dione]

Ki [1]: 1200 nM
Compound: Cc1cc([N+](=O)[O-])c2[nH]c(=O)c(=O)[nH]c2c1 [NO2 H Me H, 7-Methyl-5-nitro-1,4-dihydro-2,3-quinoxalinedione]

Ki [1]: 800 nM
Compound: O=c1[nH]c2cc3c(c([N+](=O)[O-])c2[nH]c1=O)CCC3 [NO2 CH2 CH2 CH2 H, 5-Nitrocyclopento[g]-1,4-dihydroquinoxaline-2,3-dione]

Ki [1]: 11000 nM
Compound: O=c1[nH]c2cc3ccccc3cc2[nH]c1=O [H CH=CHCH=CH H, 1,4-dihydrobenzo[g]quinoxaline-2,3-dione]

Ki (glycine binding site; Table III, read-out: Ki): 8200 nM
Compound: O=c1[nH]c2cc(F)c(F)cc2[nH]c1=O [H F F H, 6,7-Difluoro-1,4-dihydro-2,3-quinoxalinedione]
ED50 (mice; iv, Table III, i.v. injection): 15 mg/kg

Ki (glycine binding site; Table III, read-out: Ki): 70 nM
Compound: O=c1[nH]c2cc(Cl)c(F)c([N+](=O)[O-])c2[nH]c1=O [NO2 F Cl H, 7-Chloro-6-fluoro-5-nitro-1,4-dihydroquinoxaline-2,3-dione]
ED50 (mice; iv, Table III, i.v. injection): 0.9 mg/kg

Ki (glycine binding site; Table III, read-out: Ki): 43 nM
Compound: O=c1[nH]c2cc(F)c(Br)c([N+](=O)[O-])c2[nH]c1=O [NO2 Br F H, 6-Bromo-7-Fluoro-5-nitro-1,4-dihydroquinoxaline-2,3-dione]
ED50 (mice; iv, Table III, i.v. injection): 3.5 mg/kg

Ki (glycine binding site; Table I): inactive
Compound: Nc1ccc2[nH]c(=O)c(=O)[nH]c2c1 [NH2, reference compound]

Ki [1]: 980 nM
Compound: Cc1cc2[nH]c(=O)c(=O)[nH]c2cc1C [H Me Me H, 6,7-Dimethyl-1,4-dihydroquinoxaline-2,3-dione]

Ki [1]: 71 nM
Compound: [N-]=[N+]=Nc1c(Cl)c(Cl)cc2[nH]c(=O)c(=O)[nH]c12 [N3 Cl Cl H, 5-Azido-6,7-dichloro-1,4-dihydroquinoxaline-2,3-dione]

Ki (glycine binding site; Table IV, read-out: Ki): 95 nM
Compound: O=c1[nH]c2cc(C(F)(F)F)cc([N+](=O)[O-])c2[nH]c1=O [NO2 H CF3 H, 7-trifluoromethyl-5-nitro-1,4-dihydroquinoxaline-2,3-dione]
ED100 (mice; Table IV, i.v.): 40 mg/kg
ED50 (mice; Table IV, i.v.): 17 mg/kg
IV peak of action (mice; Table IV, i.v.): 30 min
% protection after 60 min. (mice; i.v., 40 mg/kg): 62%

Ki [1]: 500 nM
Compound: CCSc1c(Cl)cc2[nH]c(=O)c(=O)[nH]c2c1[N+](=O)[O-] [NO2 SEt Cl H, 7-Chloro-1,4-dihydro-6-ethylthio-5-nitroquinoxaline-2,3-dione]

Ki (glycine binding site; Table I, read-out: Ki): 1390 nM
Compound: O=[N+]([O-])c1ccc2nc(O)c(O)nc2c1 [NO2, reference compound]

Ki [1]: 280 nM
Ki (glycine binding site; Table III, read-out: Ki): 280 nM
Compound: [N-]=[N+]=Nc1c(F)cc2[nH]c(=O)c(=O)[nH]c2c1[N+](=O)[O-] [NO2 N3 F H, 6-Azido-7-fluoro-5-nitro-1,4-dihydroquinoxaline-2,3-dione]
ED50 (mice; iv, Table III, i.v. injection): 7.5 mg/kg

Ki (glycine binding site; Table III, read-out: Ki): 180 nM
Compound: O=c1[nH]c2cc(F)c(Cl)c([N+](=O)[O-])c2[nH]c1=O [NO2 Cl F H, 6-Chloro-1,4-dihydro-7-fluoro-5-nitroquinoxaline-2,3-dione]
ED50 (mice; iv, Table III, i.v. injection): 4 to 5 mg/kg

Ki (glycine binding site; Table I, read-out: Ki): 2470 nM
Compound: Oc1nc2ccccc2nc1O [H, reference compound]
